The record followed here is US20260022142A1, “MACROCYCLIC IMMUNOMODULATORS” (Bristol-Myers Squibb Company, priority 2022, published 2026).

Numbered stars: 1 amine (or outer) side, 2 acyl side, 3 side chain; on linkers, the order of the positions; unused ones are H or OH. Bridge positions count the residues as written; N and C are the ends. Square brackets hold non-standard residues; d marks the D form. Peptide text beside a SMILES is read from it. * marks the point of attachment. ξ: configuration not given here. Trp(βS-Me) = C[C@@H](c1c[nH]c2ccccc12)[C@H](N)C(=O)O; Phe(4-COOH) = N[C@@H](Cc1ccc(C(=O)O)cc1)C(=O)O; Bip = N[C@@H](Cc1ccc(-c2ccccc2)cc1)C(=O)O; Phe(4-CN) = N#Cc1ccc(C[C@H](N)C(=O)O)cc1; Phe(3-Me) = Cc1cccc(C[C@H](N)C(=O)O)c1; Val(3-OH) = CC(C)(O)[C@H](N)C(=O)O; X12 = CC(N)[C@H](N[*:1])C(=O)[*:2]; 4Pal = N[C@@H](Cc1ccncc1)C(=O)O; Cha = N[C@@H](CC1CCCCC1)C(=O)O; Cit = NC(=O)NCCC[C@H](N)C(=O)O; Thr(3ξ) = CC(O)[C@H](N)C(=O)O; 3Abz = Nc1cccc(C(=O)O)c1; Carboxymethyl = O=C(O)C*; Orn = NCCC[C@H](N)C(=O)O; Aun = NCCCCCCCCCCC(=O)O; Dab = NCC[C@H](N)C(=O)O; Dap = NC[C@H](N)C(=O)O; AEEA = NCCOCCOCC(=O)O; Aib = CC(C)(N)C(=O)O

The term IC50 denotes the point on the concentration scale where inhibition reaches its midpoint.

T1 sequence (Q15116 25-288): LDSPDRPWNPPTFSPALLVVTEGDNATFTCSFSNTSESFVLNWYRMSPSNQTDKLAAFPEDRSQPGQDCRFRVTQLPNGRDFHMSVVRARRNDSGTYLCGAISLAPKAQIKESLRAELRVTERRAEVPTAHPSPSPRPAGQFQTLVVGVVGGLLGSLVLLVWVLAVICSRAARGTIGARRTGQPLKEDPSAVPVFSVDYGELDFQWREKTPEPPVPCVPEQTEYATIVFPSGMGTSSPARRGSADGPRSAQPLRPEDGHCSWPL

This assay addresses T1, PD-1/PD-L1 interaction (PE-labeled human PD-L1-Ig binding to Jurkat cell line over-expressing human PD-1) (Homo sapiens, UniProt Q15116).
T1 construct: expressed in transfected cells; host or cells: Jurkat
As to the kind of experiment: Jurkat-PD-1 Cell Binding High-Content Screening Assay (CBA). The format is cell-based. The following applies: Jurkat cell line over-expressing human PD-1; PE-labeled PD-L1-Ig 20 nM final; read-out: Jurkat hPD1-PDL1 IC50. The method in brief:
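Human PD-L1-Ig carrying a covalent PE label on its Ig tag serves as the probe, applied at 20 nM final to compound-treated (2 h, 37° C) Jurkat-hPD-1 cells in medium with 10% fetal calf serum. After one hour, fixation and nuclear staining precede high-content image analysis.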
As for `Cc1cccc(C[C@@H]2NC(=O)[C@H](CC(=O)O)NC(=O)[C@H](Cc3ccc(OCC(=O)O)cc3)NC(=O)[C@H](C(C)O)NC(=O)CSC[C@@H](C(=O)N[C@H](CCC(=O)O)C(=O)NCCCCCCCCCCC(=O)O)NC(=O)[C@H](C(C)O)NC(=O)[C@H](C(C)C)NC(=O)[C@H](CC3CCCCC3)NC(=O)[C@H](CCN)NC(=O)[C@@H](CC(C)C)NC(=O)[C@H](CCCN)NC(=O)[C@H](C(C)C)NC(=O)[C@H](Cc3ccc(-c4ccccc4)cc3)NC(=O)[C@H](Cc3ccc(O)cc3)NC2=O)c1` (stereo partly drawn) [Compound 3435] ({CH2CO}-[Thr(3ξ)]Y(Carboxymethyl)D[Phe(3-Me)]Y[Bip]V[Orn][dL][Dab][Cha]V[Thr(3ξ)]C[dE][Aun]-OH; thioether N-14), the IC50 was 12.9 nM.

Regarding `Cc1cccc(C[C@@H]2NC(=O)[C@H](CC(=O)O)NC(=O)[C@H](Cc3ccc(OCC(=O)O)cc3)NC(=O)[C@H](CN)NC(=O)CSC[C@@H](C(=O)N[C@@H](CCC(=O)O)C(=O)NCCCCCCCCCCC(=O)O)NC(=O)[C@H]([C@@H](C)O)NC(=O)[C@H](C(C)C)NC(=O)[C@H](CC3CCCCC3)NC(=O)[C@H](CCN)NC(=O)[C@@H](CC(C)C)NC(=O)[C@H](CCCN)NC(=O)[C@H](CCC(=O)O)NC(=O)[C@H](Cc3ccc(-c4ccccc4)cc3)NC(=O)[C@H](C(C)C)NC2=O)c1` [Compound 1045] ({CH2CO}-[Dap]Y(Carboxymethyl)D[Phe(3-Me)]V[Bip]E[Orn][dL][Dab][Cha]VTCE[Aun]-OH; thioether N-14), the 50% inhibitory concentration (IC50) is 11 nM. Next, `CC(C)C[C@@H]1NC(=O)[C@H](Cc2c[nH]c3ccccc23)NC(=O)[C@H](CC(=O)O)NC(=O)[C@H](Cc2ccncc2)NC(=O)[C@H](Cc2ccc(OCC(=O)O)cc2)NC(=O)CSC[C@@H](C(=O)Nc2cccc(C(=O)NCCCCCCCCCCC(=O)O)c2)NC(=O)[C@H](CCCN)NC(=O)[C@H](C(C)C)NC(=O)[C@H](CC2CCCCC2)NC(=O)[C@H](CCN)NC(=O)[C@@H](CC(C)C)NC(=O)[C@H](CCCN)NC(=O)[C@H](C(C)C)NC(=O)[C@H](Cc2ccc(-c3ccccc3)cc2)NC1=O` [Compound 1312] ({CH2CO}-Y(Carboxymethyl)[4Pal]DWL[Bip]V[Orn][dL][Dab][Cha]V[Orn]C[3Abz][Aun]-OH; thioether N-14): 105 nM; `CC(C)C[C@H]1NC(=O)[C@H](CCCN)NC(=O)[C@H](Cc2ccc(OCC(=O)O)cc2)NC(=O)[C@H](Cc2ccc(-c3ccccc3)cc2)NC(=O)[C@H](Cc2ccc(OCC(=O)O)cc2)NC(=O)[C@H]([C@@H](C)c2c[nH]c3ccccc23)NC(=O)[C@H](CC(=O)O)NC(=O)[C@H](Cc2ccc(OCC(=O)O)cc2)NC(=O)[C@H](CCCNC(=N)N)NC(=O)CSC[C@@H](C(=O)N[C@@H](CCN)C(=O)NCCCCCCCCCCC(=O)O)NC(=O)[C@H]([C@@H](C)O)NC(=O)[C@H](C(C)C)NC(=O)[C@H](CC2CCCCC2)NC(=O)[C@H](CCN)NC1=O` [Compound 2138] ({CH2CO}-RY(Carboxymethyl)D[Trp(βS-Me)]Y(Carboxymethyl)[Bip]Y(Carboxymethyl)[Orn][dL][Dab][Cha]VTC[Dab][Aun]-OH; thioether N-14): 109 nM; `Cc1cccc(C[C@@H]2NC(=O)[C@H](CC(=O)O)NC(=O)[C@H](Cc3ccc(OCC(=O)O)cc3)NC(=O)[C@H](C(C)N)NC(=O)CSC[C@@H](C(=O)N[C@@H](CCN)C(=O)NCCCCCCCCCCC(=O)O)NC(=O)[C@H](CCC(N)=O)NC(=O)[C@H](C(C)O)NC(=O)[C@H](CC3CCCCC3)NC(=O)[C@H](CCN)NC(=O)[C@@H](CC(C)C)NC(=O)[C@H](CCCN)NC(=O)[C@H](Cc3ccc(OCC(=O)O)cc3)NC(=O)[C@H](Cc3ccc(-c4ccccc4)cc3)NC(=O)[C@H](Cc3ccc(OCC(=O)O)cc3)NC2=O)c1` (stereo partly drawn) [Compound 3519] ({CH2CO}-[X12]Y(Carboxymethyl)D[Phe(3-Me)]Y(Carboxymethyl)[Bip]Y(Carboxymethyl)[Orn][dL][Dab][Cha][Thr(3ξ)]QC[Dab][Aun]-OH; thioether N-14): 10.4 nM. Next, `Cc1cccc(C[C@@H]2NC(=O)[C@H](CC(=O)O)NC(=O)[C@H](Cc3ccc(C#N)cc3)NC(=O)[C@H](C(C)O)NC(=O)CSC[C@@H](C(=O)N[C@@H](CCN)C(=O)NCCOCCOCC(=O)NCCOCCOCC(=O)NCCCCCCCCCCC(=O)O)NC(=O)[C@H](Cc3cnc[nH]3)NC(=O)[C@H](C(C)O)NC(=O)[C@H](CC3CCCCC3)NC(=O)[C@H](CCN)NC(=O)[C@@H](CC(C)C)NC(=O)[C@H](CCCN)NC(=O)[C@H](Cc3ccc(OCC(=O)O)cc3)NC(=O)[C@H](Cc3ccc(-c4ccccc4)cc3)NC(=O)[C@H](Cc3ccc(OCC(=O)O)cc3)NC2=O)c1` (stereo partly drawn) [Compound 3774] ({CH2CO}-[Thr(3ξ)][Phe(4-CN)]D[Phe(3-Me)]Y(Carboxymethyl)[Bip]Y(Carboxymethyl)[Orn][dL][Dab][Cha][Thr(3ξ)]HC[Dab][AEEA][AEEA][Aun]-OH; thioether N-14): 6.3 nM; `Cc1cccc(C[C@@H]2NC(=O)[C@H](CC(=O)O)NC(=O)[C@H](Cc3ccc(C(=O)O)cc3)NC(=O)[C@H](Cc3ccncc3)NC(=O)CSC[C@@H](C(=O)N[C@@H](CCN)C(=O)NCCOCCOCC(=O)NCCOCCOCC(=O)NCCCCCCCCCCC(=O)O)NC(=O)[C@H](CCC(=O)O)NC(=O)[C@H](C(C)(C)O)NC(=O)[C@H](CC3CCCCC3)NC(=O)[C@H](CCN)NC(=O)[C@@H](CC(C)C)NC(=O)[C@H](CCCN)NC(=O)[C@H](Cc3ccc(C(=O)O)cc3)NC(=O)[C@H](Cc3ccc(-c4ccccc4)cc3)NC(=O)[C@H](Cc3ccc(C(=O)O)cc3)NC2=O)c1` [Compound 3764] ({CH2CO}-[4Pal][Phe(4-COOH)]D[Phe(3-Me)][Phe(4-COOH)][Bip][Phe(4-COOH)][Orn][dL][Dab][Cha][Val(3-OH)]EC[Dab][AEEA][AEEA][Aun]-OH; thioether N-14): 238 nM; `Cc1cccc(C[C@@H]2NC(=O)[C@H](CC(=O)O)NC(=O)[C@H](Cc3ccncc3)NC(=O)[C@H](Cc3ccc(OCC(=O)O)cc3)NC(=O)CSC[C@@H](C(=O)NCCOCCOCC(=O)N[C@@H](CN)C(=O)NCCCCCCCCCCC(=O)O)NC(=O)[C@H]([C@@H](C)O)NC(=O)[C@H](C(C)C)NC(=O)[C@H](CC3CCCCC3)NC(=O)[C@H](CCN)NC(=O)[C@@H](CC(C)C)NC(=O)[C@H](CCCN)NC(=O)[C@H](C(C)C)NC(=O)[C@H](Cc3ccc(-c4ccccc4)cc3)NC(=O)[C@H](C(C)C)NC2=O)c1` [Compound 1169] ({CH2CO}-Y(Carboxymethyl)[4Pal]D[Phe(3-Me)]V[Bip]V[Orn][dL][Dab][Cha]VTC[AEEA][Dap][Aun]-OH; thioether N-14): 28.7 nM. As for `Cc1cccc(C[C@@H]2NC(=O)[C@H](CC(=O)O)NC(=O)[C@H](Cc3ccc(OCC(=O)O)cc3)NC(=O)[C@H](CN)NC(=O)CSC[C@@H](C(=O)NC(C)(C)C(=O)N[C@@H](CCC(=O)O)C(=O)NCCCCCCCCCCC(=O)O)NC(=O)[C@H]([C@@H](C)O)NC(=O)[C@H](C(C)C)NC(=O)[C@H](CC3CCCCC3)NC(=O)[C@H](CCN)NC(=O)[C@@H](CC(C)C)NC(=O)[C@H](CCCN)NC(=O)[C@H](CCCNC(N)=O)NC(=O)[C@H](Cc3ccc(-c4ccccc4)cc3)NC(=O)[C@H](C(C)C)NC2=O)c1` [Compound 2784] ({CH2CO}-[Dap]Y(Carboxymethyl)D[Phe(3-Me)]V[Bip][Cit][Orn][dL][Dab][Cha]VTC[Aib]E[Aun]-OH; thioether N-14), the concentration for half-maximal inhibition (IC50) is 21.8 nM.
